# Columns and labels:
# [1] = target: T1, CrHydA1 ([FeFe] hydrogenase) (Chlamydomonas reinhardtii, UniProt Q9FYU1); experiment: IR titration with Na2SO3 (source of SO2) at pH […] and […] fit; assay type: binding
# T1 construct: gene hyd1; CrHydA1^PDT (chemical variant with propane dithiolate bridging ligand in [2Fe]H)
# T1 sequence (Q9FYU1 57-497): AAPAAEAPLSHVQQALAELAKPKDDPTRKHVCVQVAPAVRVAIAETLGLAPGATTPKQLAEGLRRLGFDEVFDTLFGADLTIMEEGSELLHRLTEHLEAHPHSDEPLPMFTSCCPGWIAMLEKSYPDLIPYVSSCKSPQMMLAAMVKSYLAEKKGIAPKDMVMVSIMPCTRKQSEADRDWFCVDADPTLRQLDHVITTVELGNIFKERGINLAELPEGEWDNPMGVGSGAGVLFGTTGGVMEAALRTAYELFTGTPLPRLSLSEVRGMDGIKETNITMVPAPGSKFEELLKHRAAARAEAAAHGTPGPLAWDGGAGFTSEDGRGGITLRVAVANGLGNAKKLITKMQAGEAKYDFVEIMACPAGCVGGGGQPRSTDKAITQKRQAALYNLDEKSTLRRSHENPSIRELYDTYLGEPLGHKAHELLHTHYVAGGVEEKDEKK
# [2] = target: T2, CpHydA1 ([FeFe] hydrogenase HydA1) (Clostridium pasteurianum, UniProt P29166); experiment: IR spectroscopy, conversion to HoxH with Na2SO3 at low pH; assay type: binding
# T2 sequence (P29166 1-574): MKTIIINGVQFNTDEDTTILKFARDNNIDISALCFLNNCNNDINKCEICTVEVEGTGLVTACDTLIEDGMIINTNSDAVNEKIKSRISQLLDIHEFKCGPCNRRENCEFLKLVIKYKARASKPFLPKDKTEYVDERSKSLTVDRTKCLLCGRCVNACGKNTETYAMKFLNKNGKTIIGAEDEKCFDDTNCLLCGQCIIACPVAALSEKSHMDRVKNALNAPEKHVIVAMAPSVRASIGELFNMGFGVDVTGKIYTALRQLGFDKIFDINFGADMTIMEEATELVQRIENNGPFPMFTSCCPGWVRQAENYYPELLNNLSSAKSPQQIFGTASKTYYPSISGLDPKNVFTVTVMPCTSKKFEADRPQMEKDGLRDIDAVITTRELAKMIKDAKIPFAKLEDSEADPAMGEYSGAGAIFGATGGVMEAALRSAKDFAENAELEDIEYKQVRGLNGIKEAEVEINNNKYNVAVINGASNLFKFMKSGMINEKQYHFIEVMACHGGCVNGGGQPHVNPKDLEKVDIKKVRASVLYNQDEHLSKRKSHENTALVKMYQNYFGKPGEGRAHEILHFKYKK
structure (smiles),measurement,setting,value
O=S=O [SO2],Kd,[1],~500 nM
same,"IR spectroscopy, conversion to HoxH with Na2SO3 at low pH",[2],SO2 binding caused formation of HoxH not only with CrHydA1 but also with the bacterial enzymes CpHydA1 and DdHydAB

# From publication PMC8569811, “The Nonphysiological Reductant Sodium Dithionite and [FeFe] Hydrogenase: Influence on the Enzyme Mechanism” (Journal of the American Chemical Society, 2021)
